Measured values taken from patent publication US6566337B1, “Compounds with growth hormone releasing properties” (Novo Nordisk A/S, priority 1998, dated 2003).
Square brackets hold non-standard residues; d marks the D form. Peptide text beside a SMILES is read from it. d2Nal = N[C@H](Cc1ccc2ccccc2c1)C(=O)O

Experiments:
[1] = Pharmacokinetics in fasted Beagle dogs; format: in vivo; conditions: dog, plasma; for half-life: in 5% glucose solution, non-compartmental, read-out: Plasma half-life T½ (converted); for bioavailability: intravenous and oral administration in 5% glucose solution, read-out: Oral bioavailability Fpo
Experimental: The pharmakokinetic data were obtained by following procedure:
The pharmacokinetics of the test compounds were investigated in fasted Beagle dogs.
Intravenous and oral administration of the test compound, in 5% glucose solution, was separated by a one weeks washout.
Blood samples were collected immediately before drug administration (time zero) and than 0.08, 0.25, 0.50, 0.75, 1.0, 1.5, 2.0, 3.0, 4.0, 5.0, and 6.0 hours after administration.
The plasma samples were stored frozen (<−18° C.) pending analysis.
An HPLC method with solid phase extraction and UV detection was used for the quantification of the compound in plasma.
The pharmacokinetic parameters for compounds were calculated by non-compartmental methods using the PC based pharmacokinetic software WinNonlin, version 1.1 (Scientific Consulting Inc., Apex, N.C., USA).

[2] = test system: carboxypeptidase Y and B; assay: Metabolic stability in carboxypeptidase mix (ESMS, SIM signal); conditions: carboxypeptidase Y and B in 50 mM ammoniumacetate pH 4.5, 37° C., 24 h, decrease in SIM signal
Experimental: (§1) Compounds is dissolved at a concentration of 1 mg/ml in water. 25 ml of this solution is added to 175 ml of the respective enzyme-solution (resulting in an enzyme:substrate ratio (w/w) of approximately 1:5). The solution is left at 37° C. overnight. 10 ml of the various degradation solutions is analyzed against a corresponding zero-sample using flow injection electrospray mass spectrometry (ESMS) with selected ion monitoring of the molecular ion. If the signal has decreased more than 20% compared to the zero-sample, the remainder of the solution is analyzed by HPLC and mass spectrometry in order to identify the extent and site(s) of degradation precisely.
Carboxypeptidase mix: carboxypeptidase Y and B in 50 mM ammoniumacetate pH 4.5 (all concentrations 0.025 mg/ml).
(§2) Mass spectrometric analysis was performed using two different mass spectrometers. A Sciex API III triple quadrupole LC-MS instrument (Sciex instruments, Thornhill, Ontario) equipped with an electrospray ion-source and a Bio-Ion 20 time-of-flight Plasma Desorption instrument (Bio-Ion Nordic AB, Uppsala, Sweden).
(§3) Quantification of the compounds (before and after degradation) was done on the API III instrument using single ion monitoring of the molecular ion in question with flow injection of the analyte. […]

[3] = test system: trypsin, chymotrypsin and elastase; assay: Metabolic stability in pancreatic enzyme mix (ESMS, SIM signal); conditions: chymotrypsin and elastase in 100 mM ammoniumbicarbonate pH 8.0, 37° C., 24 h, decrease in SIM signal
Experimental: as §1
Pancreatic enzyme mix: trypsin, chymotrypsin and elastase in 100 mM ammoniumbicarbonate pH 8.0 (all concentrations 0.025 mg/ml).
as §2, §3

Row | SMILES | half-life [1] [h] | bioavailability [1] [%] | Carboxy-peptidase mix (stability) [2] | Pan. enzyme mix (stability) [3]
1 | CN(CCc1ccccn1)C(=O)[C@@H](Cc1ccccc1)N(C)C(=O)[C@@H](Cc1ccc2ccccc2c1)N(C)C(=O)/C=C/CC(C)(C)N [Example 1, (2E)-5-Amino-5-methylhex-2-enoic acid N-methyl-N-[(1R)-1-(N-methyl-N-{(1R)-1-[N-methyl-N-(2-(2-pyridinyl)ethyl)carbamoyl]-2-phenylethyl}carbamoyl)-2-(2-naphthyl)ethyl]amide] | 2 | 34 | – | –
2 | CN(C(=O)/C=C/CC(C)(C)N)[C@H](Cc1ccc2ccccc2c1)C(=O)N(C)[C@H](Cc1ccccc1)C(=O)NCCc1ccncc1 [Example 408 from WO 9723508] | 3.89 | 26 | – | –
3 | C[C@H](NC(=O)[C@@H](Cc1ccc2ccccc2c1)NC(=O)[C@@H](C)N)C(=O)N[C@@H](Cc1c[nH]c2ccccc12)C(=O)N[C@H](Cc1ccccc1)C(=O)N[C@@H](CCCCN)C(N)=O [GHRP-2] (H-[dA][d2Nal]AW[dF]K-NH2) | – | – | − (Unstable (more than 20% decrease in SIM signal after 24 h in degradation solution)) | − (Unstable (more than 20% decrease in SIM signal after 24 h in degradation solution))
4 | C[C@H](NC(=O)[C@@H](Cc1c[nH]c2ccccc12)NC(=O)[C@@H](N)Cc1c[nH]cn1)C(=O)N[C@@H](Cc1c[nH]c2ccccc12)C(=O)N[C@H](Cc1ccccc1)C(=O)N[C@@H](CCCCN)C(N)=O [GHRP-6] (H-H[dW]AW[dF]K-NH2) | – | – | − (Unstable (more than 20% decrease in SIM signal after 24 h in degradation solution)) | − (Unstable (more than 20% decrease in SIM signal after 24 h in degradation solution))
